In PubChem BioAssay (NCI):
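The compound was tested at five concentrations on cells cultured in 96-well plates, with a 48-hour exposure period. GI50 is the concentration that inhibits growth by half. At the TGI there is no net growth.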

Key:
Assay in all cases: growth of human tumour cells (NCI), 48 h
HOP-62 NSCLC = tested on: HOP-62 NSCLC
HT29 colon = tested on: HT29 colon
TK-10 renal = tested on: TK-10 renal
HS 578T breast = tested on: HS 578T breast
MCF7 breast = tested on: MCF7 breast
MDA-MB-231 breast = tested on: MDA-MB-231 breast
786-0 renal = tested on: 786-0 renal
SR leukemia = tested on: SR leukemia
HCT-15 colon = tested on: HCT-15 colon
MDA-MB-435 = tested on: MDA-MB-435
NCI-H460 lung = tested on: NCI-H460 lung
M14 melanoma = tested on: M14 melanoma
COLO 205 colon = tested on: COLO 205 colon
NCI-H522 lung = tested on: NCI-H522 lung
SN12C renal = tested on: SN12C renal
SK-MEL-28 melanoma = tested on: SK-MEL-28 melanoma
A549 NSCLC = tested on: A549 NSCLC
SW-620 colon = tested on: SW-620 colon
T-47D breast = tested on: T-47D breast
SK-MEL-2 melanoma = tested on: SK-MEL-2 melanoma
OVCAR-5 ovarian = tested on: OVCAR-5 ovarian
SF-268 CNS = tested on: SF-268 CNS
SF-295 CNS = tested on: SF-295 CNS
NCI-H23 lung = tested on: NCI-H23 lung
RPMI-8226 leukemia = tested on: RPMI-8226 leukemia
OVCAR-4 ovarian = tested on: OVCAR-4 ovarian
SK-MEL-5 melanoma = tested on: SK-MEL-5 melanoma
UACC-62 melanoma = tested on: UACC-62 melanoma
HCT-116 colon = tested on: HCT-116 colon
SNB-19 CNS = tested on: SNB-19 CNS
SNB-75 CNS = tested on: SNB-75 CNS
NCI/ADR-RES ovarian = tested on: NCI/ADR-RES ovarian
CCRF-CEM leukemia = tested on: CCRF-CEM leukemia
UO-31 renal = tested on: UO-31 renal
IGROV1 ovarian = tested on: IGROV1 ovarian
ACHN renal = tested on: ACHN renal
PC-3 prostate = tested on: PC-3 prostate
OVCAR-3 ovarian = tested on: OVCAR-3 ovarian
KM12 colon = tested on: KM12 colon
SF-539 CNS = tested on: SF-539 CNS
NCI-H226 lung = tested on: NCI-H226 lung
MOLT-4 leukemia = tested on: MOLT-4 leukemia
U251 CNS = tested on: U251 CNS
K-562 leukemia = tested on: K-562 leukemia
HL-60(TB) leukemia = tested on: HL-60(TB) leukemia
A498 renal = tested on: A498 renal
HCC-2998 colon = tested on: HCC-2998 colon
EKVX NSCLC = tested on: EKVX NSCLC
LOX IMVI melanoma = tested on: LOX IMVI melanoma
SK-OV-3 ovarian = tested on: SK-OV-3 ovarian
BT-549 breast = tested on: BT-549 breast
DU-145 prostate = tested on: DU-145 prostate
RXF 393 renal = tested on: RXF 393 renal
MALME-3M melanoma = tested on: MALME-3M melanoma
UACC-257 melanoma = tested on: UACC-257 melanoma
OVCAR-8 ovarian = tested on: OVCAR-8 ovarian
CAKI-1 renal = tested on: CAKI-1 renal

SMILES: CNc1ccccc1S(=O)(=O)c1ccccc1[N+](=O)[O-]
- TGI (HOP-62 NSCLC): > 100 µM
- TGI (HT29 colon): > 100 µM
- TGI (TK-10 renal): > 100 µM
- TGI (HS 578T breast): > 100 µM
- TGI (MCF7 breast): > 100 µM
- TGI (MDA-MB-231 breast): > 100 µM
- TGI (786-0 renal): > 100 µM
- TGI (SR leukemia): > 100 µM
- TGI (HCT-15 colon): > 100 µM
- TGI (MDA-MB-435): > 100 µM
- TGI (NCI-H460 lung): > 100 µM
- TGI (M14 melanoma): > 100 µM
- TGI (COLO 205 colon): > 100 µM
- TGI (NCI-H522 lung): > 100 µM
- TGI (SN12C renal): > 100 µM
- TGI (SK-MEL-28 melanoma): > 100 µM
- TGI (A549 NSCLC): > 100 µM
- TGI (SW-620 colon): > 100 µM
- TGI (T-47D breast): > 100 µM
- TGI (SK-MEL-2 melanoma): > 100 µM
- TGI (OVCAR-5 ovarian): > 100 µM
- TGI (SF-268 CNS): > 100 µM
- TGI (SF-295 CNS): > 100 µM
- TGI (NCI-H23 lung): > 100 µM
- TGI (RPMI-8226 leukemia): > 100 µM
- TGI (OVCAR-4 ovarian): > 100 µM
- TGI (SK-MEL-5 melanoma): > 100 µM
- TGI (UACC-62 melanoma): > 100 µM
- TGI (HCT-116 colon): > 100 µM
- TGI (SNB-19 CNS): > 100 µM
- TGI (SNB-75 CNS): > 100 µM
- TGI (NCI/ADR-RES ovarian): > 100 µM
- TGI (CCRF-CEM leukemia): > 100 µM
- TGI (UO-31 renal): > 100 µM
- TGI (IGROV1 ovarian): > 100 µM
- TGI (ACHN renal): > 100 µM
- TGI (PC-3 prostate): > 100 µM
- TGI (OVCAR-3 ovarian): > 100 µM
- TGI (KM12 colon): > 100 µM
- TGI (SF-539 CNS): > 100 µM
- TGI (NCI-H226 lung): > 100 µM
- TGI (MOLT-4 leukemia): > 100 µM
- TGI (U251 CNS): > 100 µM
- TGI (K-562 leukemia): > 100 µM
- TGI (HL-60(TB) leukemia): > 100 µM
- TGI (A498 renal): > 100 µM
- TGI (HCC-2998 colon): > 100 µM
- TGI (EKVX NSCLC): > 100 µM
- TGI (LOX IMVI melanoma): > 100 µM
- TGI (SK-OV-3 ovarian): > 100 µM
- TGI (BT-549 breast): 65.3 µM
- TGI (DU-145 prostate): > 100 µM
- TGI (RXF 393 renal): > 100 µM
- TGI (MALME-3M melanoma): > 100 µM

SMILES: COc1ccc(/C=C/C(=O)c2c(O)c(C)c(O)c3c2OC2=CC(O)=C(C(C)=O)C(=O)[C@]23C)cc1
- GI50 (HOP-62 NSCLC): 1.92 µM
- TGI (HOP-62 NSCLC): 6.13 µM
- GI50 (HT29 colon): 0.86 µM
- TGI (HT29 colon): 4.33 µM
- GI50 (TK-10 renal): 0.597 µM
- TGI (TK-10 renal): 5.1 µM
- GI50 (HS 578T breast): 2.9 µM
- TGI (HS 578T breast): 8.76 µM
- GI50 (MCF7 breast): 0.61 µM
- TGI (MCF7 breast): 3.8 µM
- GI50 (MDA-MB-231 breast): 1.04 µM
- TGI (MDA-MB-231 breast): 5.66 µM
- GI50 (786-0 renal): 2.44 µM
- TGI (786-0 renal): 7.59 µM
- GI50 (SR leukemia): 1.17 µM
- TGI (SR leukemia): > 17.5 µM
- GI50 (HCT-15 colon): 0.706 µM
- TGI (HCT-15 colon): 3.48 µM
- GI50 (MDA-MB-435): 1.92 µM
- TGI (MDA-MB-435): 4.11 µM
- GI50 (NCI-H460 lung): 0.898 µM
- TGI (NCI-H460 lung): 3.71 µM
- GI50 (UACC-257 melanoma): 3.11 µM
- TGI (UACC-257 melanoma): 10 µM
- GI50 (M14 melanoma): 0.925 µM
- TGI (M14 melanoma): 4.82 µM
- GI50 (COLO 205 colon): 1.93 µM
- TGI (COLO 205 colon): 4.54 µM
- GI50 (NCI-H522 lung): 0.511 µM
- TGI (NCI-H522 lung): 2.33 µM
- GI50 (SN12C renal): 0.603 µM
- TGI (SN12C renal): 2.48 µM
- GI50 (SK-MEL-28 melanoma): 1.15 µM
- TGI (SK-MEL-28 melanoma): 4.72 µM
- GI50 (A549 NSCLC): 1.33 µM
- TGI (A549 NSCLC): 7.26 µM
- GI50 (SW-620 colon): 0.659 µM
- TGI (SW-620 colon): 3.79 µM
- GI50 (T-47D breast): 0.521 µM
- TGI (T-47D breast): 2.66 µM
- GI50 (SK-MEL-2 melanoma): 0.961 µM
- TGI (SK-MEL-2 melanoma): 3.72 µM
- GI50 (OVCAR-8 ovarian): 0.631 µM
- TGI (OVCAR-8 ovarian): 2.35 µM
- GI50 (OVCAR-5 ovarian): 4.2 µM
- TGI (OVCAR-5 ovarian): > 17.5 µM
- GI50 (SF-268 CNS): 0.871 µM
- TGI (SF-268 CNS): 4.72 µM
- GI50 (SF-295 CNS): 0.821 µM
- TGI (SF-295 CNS): 5.11 µM
- GI50 (NCI-H23 lung): 0.598 µM
- TGI (NCI-H23 lung): 3.13 µM
- GI50 (RPMI-8226 leukemia): 0.596 µM
- TGI (RPMI-8226 leukemia): 1.88 µM
- GI50 (OVCAR-4 ovarian): 2.21 µM
- TGI (OVCAR-4 ovarian): 10 µM
- GI50 (SK-MEL-5 melanoma): 1.29 µM
- TGI (SK-MEL-5 melanoma): 3.61 µM
- GI50 (UACC-62 melanoma): 0.891 µM
- TGI (UACC-62 melanoma): 3.48 µM
- GI50 (HCT-116 colon): 0.61 µM
- TGI (HCT-116 colon): 2.49 µM
- GI50 (SNB-19 CNS): 1.56 µM
- TGI (SNB-19 CNS): 7.8 µM
- GI50 (SNB-75 CNS): 2.8 µM
- TGI (SNB-75 CNS): 5.95 µM
- GI50 (NCI/ADR-RES ovarian): 0.956 µM
- TGI (NCI/ADR-RES ovarian): 4.58 µM
- GI50 (CCRF-CEM leukemia): 0.702 µM
- TGI (CCRF-CEM leukemia): 9.97 µM
- GI50 (UO-31 renal): 3.45 µM
- TGI (UO-31 renal): 10.6 µM
- GI50 (IGROV1 ovarian): 0.932 µM
- TGI (IGROV1 ovarian): 8.02 µM
- GI50 (CAKI-1 renal): 0.694 µM
- TGI (CAKI-1 renal): 8.19 µM
- GI50 (ACHN renal): 1.03 µM
- TGI (ACHN renal): 10.4 µM
- GI50 (PC-3 prostate): 0.611 µM
- TGI (PC-3 prostate): 2.34 µM
- GI50 (OVCAR-3 ovarian): 0.649 µM
- TGI (OVCAR-3 ovarian): 2.83 µM
- GI50 (KM12 colon): 1.04 µM
- TGI (KM12 colon): 5.9 µM
- GI50 (SF-539 CNS): 2.71 µM
- TGI (SF-539 CNS): 6.44 µM
- GI50 (NCI-H226 lung): 2.61 µM
- TGI (NCI-H226 lung): 6.75 µM
- GI50 (MOLT-4 leukemia): 0.698 µM
- TGI (MOLT-4 leukemia): > 17.5 µM
- GI50 (U251 CNS): 0.801 µM
- TGI (U251 CNS): 4.21 µM
- GI50 (K-562 leukemia): 0.627 µM
- TGI (K-562 leukemia): > 17.5 µM
- GI50 (HL-60(TB) leukemia): 0.603 µM
- TGI (HL-60(TB) leukemia): 5.85 µM
- GI50 (A498 renal): 0.77 µM
- TGI (A498 renal): 2.98 µM
- GI50 (HCC-2998 colon): 1.96 µM
- TGI (HCC-2998 colon): 5.12 µM
- GI50 (EKVX NSCLC): 0.676 µM
- TGI (EKVX NSCLC): 5.32 µM
- GI50 (LOX IMVI melanoma): 1.8 µM
- TGI (LOX IMVI melanoma): 4.57 µM
- GI50 (SK-OV-3 ovarian): 1.79 µM
- TGI (SK-OV-3 ovarian): 7.05 µM
- GI50 (BT-549 breast): 0.931 µM
- TGI (BT-549 breast): 5.26 µM
- GI50 (DU-145 prostate): 1.23 µM
- TGI (DU-145 prostate): 7.84 µM
- GI50 (RXF 393 renal): 1.96 µM
- TGI (RXF 393 renal): 4.99 µM
- GI50 (MALME-3M melanoma): 2.23 µM
- TGI (MALME-3M melanoma): 5.22 µM
